“And” between values parts separate entries of the source, which are not always exact repeats. Equal entries are not always repeated. Where two headings read alike, the source gives them in different places.

Here are results for 23 compounds from patent publication US20020110602A1, “Method and apparatus for washing produce” (priority 2000, published 2002).

Assay [1] has as its system P. digitatum. As to the kind of experiment: Effect of pH and bicarbonate concentration on decay of oranges. Format: in vivo, Penicillium digitatum.
Assay [2] concerns P. digitatum. The note with it: lemons inoculated 48 hours before treatment; immersion; cited from earlier work.
In assay [3] the test system is sour rot (Geotrichum Candidum). Description: Effect of treatments on sour rot decay of lemons. In kind it is in vivo.
For assay [4], the system named is Green Mold. As to the kind of experiment: Washing of oranges inoculated with Green Mold, decay. Format: in vivo, Penicillium digitatum. The note with it: oranges infected by green mold; four groups of 25; pressure washer, or soak tank for soda ash, sodium bicarbonate.
Assay [5] relates to P. digitatum (M6R strain). As to the kind of experiment: High pressure washing of inoculated navel oranges with sodium hypochlorite solution, no bicarbonate. Format: in vivo, Penicillium digitatum. As to conditions: 2 weeks at 55° F.; for % Fruit Decay (Average): navel oranges; for Total Decay: number of decayed navel oranges; for No decay: number of navel oranges without decay.

Assay [6] has as its system P. digitatum (M6R strain). Description: SOPP, sodium bicarbonate & chlorine treatment, navel orange decay control. In kind it is in vivo, Penicillium digitatum.
Assay [7] concerns P. digitatum. As to the kind of experiment: Immersion washing of oranges with various solutions, decay. Format: in vivo, Penicillium digitatum.
The subject of assay [8] is P. digitatum. The note with it: fresh oranges and lemons; pressure washing; FIG. 6.
Assay [9] concerns Green Mold. As to conditions: 35 seconds, 2 weeks at 50° F.
Assay [10] has as its system Green Mold. The note with it: 35 seconds, 2 weeks at 50° F. The source holds these as a separate data set.
The test system of assay [11] is P. digitatum isolate M6R. The note with it: oranges, 1 or 3% wt/vol, 200 micrograms/ml free NaOCl, pH 8.3, controls 97%.
Assay [12] has as its system P. digitatum isolate M6R. As to conditions: lemons, 1 or 3% wt/vol, 200 micrograms/ml free NaOCl, pH 8.3, controls 97%.
Setting [13] is: first set of data, four groups of 25.
The mark [14] stands for this setting: second set of data, dipping, pH 11.4, alone.
The mark [15] stands for this setting: high pressure (about 300 psi) wash.
The mark [16] stands for this setting: low pressure (about 95 psi) wash.
[17] abbreviates: second set of data, dipping, pH 7.5, alone.
The mark [18] stands for this setting: pressure washer (100 psi), navel oranges, replicates R1-R4, 2 weeks at 55° F., listed as Chlorine @ 200 ppm.
[19] abbreviates: second set of data, four groups of 25.

Take `O=C([O-])[O-].[Na+].[Na+]` [0.3 M soda ash, pH 11.4, sodium carbonate]: the “Mean Decay (%)” value in [1] (setting [13]) and in [1] (setting [14]) was 10.000% in each case.

In the case of `OCl` [HOCl pH 8.4, HOCl], the “Mean Decay (%)” value worked out at 99.000% in [1] (setting [13]) and 99.000% in assay [1] (second set of data, dipping, listed as HOCl pH 8.4 alone).

Consider `O=C([O-])[O-].[Na+].[Na+]` [sodium carbonate], for which, in assay [2], the “reduction of incidence of infections from wounds” value was “more than 90%”.

On to `[O][Cl+][O-]` [Oxine 200 ppm alone at 80° F., chlorine dioxide], for which the “Mean Decay (%)” value in [3] (first set of data, four groups of 25, listed as Ozine 200 ppm, alone 80° F.) was 10.818%; in assay [3] (second set of data, four groups of 25, listed as Oxine 200 ppm 80° F.), 10.878%; in assay [4], 18.000%.

As for `O=C([O-])O.[Na+]` [0.3 M sodium bicarbonate, pH 8.4, sodium bicarbonate], the “Mean Decay (%)” value in assay [1] (setting [13]) was determined as 43.000%; in assay [1] (second set of data, dipping, pH 8.4, alone), 43.000%.

Regarding `[Na+].[O-]Cl` [High Cl, sodium hypochlorite], in [5] (setting [15]), the “% Fruit Decay (Average)” value was found to be 97.5%, the “Total Decay” value came to 197 and the No decay was 5. For the same compound, in assay [5] (setting [16]), the “% Fruit Decay (Average)” value is reported as 98%, the “Total Decay” value came to 196 and the No decay is given as 4.

Take `O=C([O-])O.[Na+]` [0.15 M sodium bicarbonate, pH 7.5, sodium bicarbonate]: the “Mean Decay (%)” value in assay [1] (setting [13]) and in assay [1] (setting [17]) was 65.000% throughout.

Regarding `[O][Cl+][O-]` [Oxine 75 ppm alone at 80° F., chlorine dioxide], the “Mean Decay (%)” value came to 22.338% in [3] (first set of data, four groups of 25, 80° F.); 22.358% in assay [3] (second set of data, four groups of 25, listed as Oxine 75 ppm 80° F.); 14.000% in assay [4].

With `[Na+].[O-]Cl` [HOCl 200 ppm alone, sodium hypochlorite], in assay [6] (100 psi wash, navel oranges (Table 10)), the “Mean Decay (%)” value was 99.3% (a). The “Decay Control (%)” value in assay [6] (100 psi wash, navel oranges, relative to inoculated control) worked out at 0.0%. Further, the “% Decay, Mean %” value in assay [6] (pressure washer (100 psi), navel oranges, mean of four replicates) stood at 99.3%. For the same compound, in assay [6] (setting [18]), the “# Decay” value is 105 and 104 and 95 and 98; the “# Healthy” value was 0 and 1 (3×); the “% Decay” value was 100.0% and 99.0% (3×). In addition, the “Mean Decay (%)” value in [7] (immersion, oranges, mean of four samples of 25) is recorded as 88.000%.

In the case of `OCl` [HOCl pH 7.5, HOCl], the “Mean Decay (%)” value in [1] (setting [13]) was 99.000%; in assay [1] (second set of data, dipping, listed as HOCl pH 7.5 alone), 99.000%.

The compound `O=C([O-])O.[Na+]` [BCB 3% alone, sodium bicarbonate] came in with a decay control in assay [8] of roughly 100%. Further, in assay [7] (in vivo), the “Mean Decay (%)” value turned out to be 7.000%.

For `[Na+].[O-]Cl` [NaOCl 200 ppm pH 7.5 alone at 80° F., sodium hypochlorite], the “Mean Decay (%)” value came out at 18.112% in assay [3] (setting [13]), 18.112% in assay [3] (setting [19]) and 17.000% in assay [4].

For the compound `O=C([O-])O.[Na+]` [BCB 0.5% alone, sodium bicarbonate], the “Decay (%) Oranges” value in [9] (high pressure washing) is 76.3%; in [9] (low pressure washing) it was 82.7%; in [9] (no pressure washing, dip), 56.9%. Also, the “Decay (%) Lemons” value is given as 55.3% in [10] (high pressure washing); 66.2% in [10] (low pressure washing); 45.1% in assay [10] (no pressure washing, dip). The “Mean Decay (%)” value in assay [7] (in vivo) is 27.000%.

Take `[O][Cl+][O-]` [Oxine 3-6 ppm alone at 80° F., chlorine dioxide]: the “Mean Decay (%)” value worked out at 21.710% in assay [3] (first set of data, four groups of 25, listed as Oxine 3-8 ppm, 80° F.); 21.710% in assay [3] (second set of data, four groups of 25, listed as Oxine 5-8 ppm 80° F.); 14.000% in assay [4].

Take `O=C([O-])O.[Na+]` [sodium bicarbonate]: the mean decay is on record as 20% in assay [11] (HPSW at 2150 kPa (320 psi)) and 17% in assay [12] (HPSW at 2150 kPa (320 psi)). Also, the “mean incidence of decay” value is given as 19% in assay [11] (tank treatment 35 seconds) and 22% in [12] (tank treatment 35 seconds).

Turning to `O=C([O-])O.[Na+]` [BCB 0.25% alone, sodium bicarbonate], in assay [7] (in vivo), the “Mean Decay (%)” value is listed as 46.000%.

With `[Na+].[O-]Cl` [Low Cl, sodium hypochlorite], in assay [5] (setting [15]), the “% Fruit Decay (Average)” value was 98.5%, the “Total Decay” value came to 201 and the No decay is 3. For the same compound, in [5] (setting [16]), the “% Fruit Decay (Average)” value came out at 99.5%, the “Total Decay” value is given as 199 and the No decay turned out to be 1.

Turning to `O=C([O-])[O-].[Na+].[Na+]` [0.15 M soda ash, pH 11.4, sodium carbonate], the “Mean Decay (%)” value in [1] (setting [13]) and in [1] (setting [14]) was 31.000% in each case.

Consider `CC/C=C\CC1C(=O)CCC1CC(=O)OC` (stereo not shown) [Methyl jasmenate, high rate, Methyl jasmenate], for which the “Mean Decay (%)” value in assay [1] (setting [13]) came to 100.000%; in assay [1] (second set of data, dipping), 100.000%.

For the compound `O=C([O-])O.[Na+]` [0.3 M sodium bicarbonate, pH 7.5, sodium bicarbonate], the “Mean Decay (%)” value in assay [1] (setting [13]) and in assay [1] (setting [17]) was 41.000% throughout.

In the case of `O=C([O-])[O-].[Na+].[Na+]` [Soda ash 3% w/v at 80° F., sodium carbonate], the “Decay (%) Oranges” value in assay [9] (no pressure washing, dip) is reported as 13.0%. The figures for the “Mean Decay (%)” value in assay [3] (setting [13]), in [3] (setting [19]) and in [4] were 10.638%, 10.856% and 11.000%, respectively. In addition, the “Decay (%) Lemons” value in assay [10] (no pressure washing, dip) is 6.8%.

Regarding `O=C([O-])O.[Na+]` [BCB 1% alone, sodium bicarbonate], the “Mean Decay (%)” value in assay [7] (in vivo) worked out at 13.000%.

As to `OCl` [HOCl pH 11.4, HOCl], the “Mean Decay (%)” value in assay [1] (setting [13]) and in assay [1] (setting [14]) was 95.000% throughout.
